Common to all, as to test: KINOMEscan (ScanMAX) kinase profiling
What all share (assay type): binding

In test [1] the target is T1, panel of 468 kinases (Homo sapiens, UniProt P10721, D816V).
T1 construct: purchased KINOMEscan (ScanMAX) service
The following applies: KIT(D816V); 1 μM; read-out: % control.

In test [2] the target is T2, panel of 468 kinases (Homo sapiens, UniProt Q9UQ88).
T2 construct: purchased KINOMEscan (ScanMAX) service
T2 sequence (Q9UQ88 1-783): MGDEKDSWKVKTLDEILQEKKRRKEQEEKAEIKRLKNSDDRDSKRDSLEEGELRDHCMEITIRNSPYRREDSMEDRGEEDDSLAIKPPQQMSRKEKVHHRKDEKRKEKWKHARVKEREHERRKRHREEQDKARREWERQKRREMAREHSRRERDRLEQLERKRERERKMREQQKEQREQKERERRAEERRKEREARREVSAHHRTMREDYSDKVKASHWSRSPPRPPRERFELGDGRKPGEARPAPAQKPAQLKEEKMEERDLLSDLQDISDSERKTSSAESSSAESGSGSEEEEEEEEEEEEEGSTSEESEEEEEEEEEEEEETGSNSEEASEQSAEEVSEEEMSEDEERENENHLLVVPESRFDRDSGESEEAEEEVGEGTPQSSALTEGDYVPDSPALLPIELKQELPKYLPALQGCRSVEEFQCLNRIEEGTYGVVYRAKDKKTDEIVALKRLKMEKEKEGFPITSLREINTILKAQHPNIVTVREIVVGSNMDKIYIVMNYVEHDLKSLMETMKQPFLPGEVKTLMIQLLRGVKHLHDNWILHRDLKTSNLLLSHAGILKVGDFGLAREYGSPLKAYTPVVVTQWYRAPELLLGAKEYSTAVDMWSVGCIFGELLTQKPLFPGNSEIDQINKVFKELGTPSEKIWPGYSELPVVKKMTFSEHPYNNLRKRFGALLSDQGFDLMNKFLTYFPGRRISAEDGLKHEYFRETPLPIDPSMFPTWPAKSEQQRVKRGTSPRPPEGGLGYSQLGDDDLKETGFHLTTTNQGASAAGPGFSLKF
The following applies: CDC2L2; 1 μM; read-out: % control.

In test [3] the target is T3, panel of 468 kinases (Homo sapiens, UniProt O75582).
T3 construct: purchased KINOMEscan (ScanMAX) service
T3 sequence (O75582 whole entry): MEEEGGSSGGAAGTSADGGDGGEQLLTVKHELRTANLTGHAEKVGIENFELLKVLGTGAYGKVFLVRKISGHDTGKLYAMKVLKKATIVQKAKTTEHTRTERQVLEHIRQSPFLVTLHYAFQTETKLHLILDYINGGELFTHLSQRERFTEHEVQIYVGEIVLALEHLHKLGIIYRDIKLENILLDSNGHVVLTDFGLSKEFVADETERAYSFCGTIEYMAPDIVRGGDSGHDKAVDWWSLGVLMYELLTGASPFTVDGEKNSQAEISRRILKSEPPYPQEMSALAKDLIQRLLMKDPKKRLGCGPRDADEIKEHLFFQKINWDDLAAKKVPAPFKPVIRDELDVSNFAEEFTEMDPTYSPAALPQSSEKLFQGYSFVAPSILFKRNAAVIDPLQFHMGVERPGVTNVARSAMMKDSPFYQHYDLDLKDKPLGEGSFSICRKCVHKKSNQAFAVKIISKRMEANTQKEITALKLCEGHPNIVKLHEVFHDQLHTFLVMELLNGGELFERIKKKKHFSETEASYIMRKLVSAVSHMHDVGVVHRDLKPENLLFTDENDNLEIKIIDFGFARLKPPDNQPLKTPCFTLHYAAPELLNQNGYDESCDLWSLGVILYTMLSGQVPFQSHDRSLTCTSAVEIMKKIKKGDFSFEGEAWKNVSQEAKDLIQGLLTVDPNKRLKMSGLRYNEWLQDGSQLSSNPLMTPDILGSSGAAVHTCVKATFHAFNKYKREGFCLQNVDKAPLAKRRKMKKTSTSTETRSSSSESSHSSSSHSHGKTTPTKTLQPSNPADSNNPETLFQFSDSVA
The following applies: 1 μM, read-out: % control.

The target of test [4] is T4, panel of 468 kinases (Homo sapiens, UniProt P04626).
T4 construct: purchased KINOMEscan (ScanMAX) service
T4 sequence (P04626 23-1255): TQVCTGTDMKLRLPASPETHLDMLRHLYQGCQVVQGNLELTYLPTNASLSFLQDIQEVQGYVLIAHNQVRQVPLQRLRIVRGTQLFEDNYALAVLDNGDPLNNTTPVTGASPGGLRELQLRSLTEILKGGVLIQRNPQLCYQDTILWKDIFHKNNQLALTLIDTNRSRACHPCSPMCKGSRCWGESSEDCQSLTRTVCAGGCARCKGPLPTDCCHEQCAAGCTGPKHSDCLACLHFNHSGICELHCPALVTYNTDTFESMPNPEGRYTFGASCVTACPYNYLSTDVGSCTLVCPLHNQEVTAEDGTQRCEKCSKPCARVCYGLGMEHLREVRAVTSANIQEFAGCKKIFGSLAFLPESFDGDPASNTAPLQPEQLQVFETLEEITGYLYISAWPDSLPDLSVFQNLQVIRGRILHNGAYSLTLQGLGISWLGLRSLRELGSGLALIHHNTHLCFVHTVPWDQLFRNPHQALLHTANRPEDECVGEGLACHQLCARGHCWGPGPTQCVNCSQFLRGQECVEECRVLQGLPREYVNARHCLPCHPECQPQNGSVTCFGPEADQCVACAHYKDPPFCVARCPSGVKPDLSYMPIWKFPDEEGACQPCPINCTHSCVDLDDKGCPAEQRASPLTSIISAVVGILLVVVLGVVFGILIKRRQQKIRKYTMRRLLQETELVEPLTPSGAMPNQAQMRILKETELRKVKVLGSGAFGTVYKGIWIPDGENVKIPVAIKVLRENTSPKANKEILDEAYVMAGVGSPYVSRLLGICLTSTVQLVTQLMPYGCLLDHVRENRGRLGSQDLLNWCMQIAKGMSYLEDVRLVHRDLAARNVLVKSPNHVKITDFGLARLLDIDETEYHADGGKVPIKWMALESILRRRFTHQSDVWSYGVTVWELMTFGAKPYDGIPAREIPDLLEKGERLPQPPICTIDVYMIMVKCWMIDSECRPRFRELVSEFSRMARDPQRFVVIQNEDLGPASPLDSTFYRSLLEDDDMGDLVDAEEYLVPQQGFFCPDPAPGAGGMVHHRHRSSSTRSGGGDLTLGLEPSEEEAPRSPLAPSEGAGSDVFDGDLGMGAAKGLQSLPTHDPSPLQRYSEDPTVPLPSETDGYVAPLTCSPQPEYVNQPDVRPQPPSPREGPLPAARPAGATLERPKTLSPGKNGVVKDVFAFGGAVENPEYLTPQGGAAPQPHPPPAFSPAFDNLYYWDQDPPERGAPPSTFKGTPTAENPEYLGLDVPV
The following applies: ERBB2; 1 μM; read-out: % control.

The target of test [5] is T5, panel of 468 kinases (Homo sapiens, UniProt Q9P0L2).
T5 construct: purchased KINOMEscan (ScanMAX) service
The following applies: MARK1; 1 μM; read-out: % control.

The target in test [6] is T6, panel of 468 kinases (Homo sapiens, UniProt Q96J92).
T6 construct: purchased KINOMEscan (ScanMAX) service
T6 sequence (Q96J92 whole entry): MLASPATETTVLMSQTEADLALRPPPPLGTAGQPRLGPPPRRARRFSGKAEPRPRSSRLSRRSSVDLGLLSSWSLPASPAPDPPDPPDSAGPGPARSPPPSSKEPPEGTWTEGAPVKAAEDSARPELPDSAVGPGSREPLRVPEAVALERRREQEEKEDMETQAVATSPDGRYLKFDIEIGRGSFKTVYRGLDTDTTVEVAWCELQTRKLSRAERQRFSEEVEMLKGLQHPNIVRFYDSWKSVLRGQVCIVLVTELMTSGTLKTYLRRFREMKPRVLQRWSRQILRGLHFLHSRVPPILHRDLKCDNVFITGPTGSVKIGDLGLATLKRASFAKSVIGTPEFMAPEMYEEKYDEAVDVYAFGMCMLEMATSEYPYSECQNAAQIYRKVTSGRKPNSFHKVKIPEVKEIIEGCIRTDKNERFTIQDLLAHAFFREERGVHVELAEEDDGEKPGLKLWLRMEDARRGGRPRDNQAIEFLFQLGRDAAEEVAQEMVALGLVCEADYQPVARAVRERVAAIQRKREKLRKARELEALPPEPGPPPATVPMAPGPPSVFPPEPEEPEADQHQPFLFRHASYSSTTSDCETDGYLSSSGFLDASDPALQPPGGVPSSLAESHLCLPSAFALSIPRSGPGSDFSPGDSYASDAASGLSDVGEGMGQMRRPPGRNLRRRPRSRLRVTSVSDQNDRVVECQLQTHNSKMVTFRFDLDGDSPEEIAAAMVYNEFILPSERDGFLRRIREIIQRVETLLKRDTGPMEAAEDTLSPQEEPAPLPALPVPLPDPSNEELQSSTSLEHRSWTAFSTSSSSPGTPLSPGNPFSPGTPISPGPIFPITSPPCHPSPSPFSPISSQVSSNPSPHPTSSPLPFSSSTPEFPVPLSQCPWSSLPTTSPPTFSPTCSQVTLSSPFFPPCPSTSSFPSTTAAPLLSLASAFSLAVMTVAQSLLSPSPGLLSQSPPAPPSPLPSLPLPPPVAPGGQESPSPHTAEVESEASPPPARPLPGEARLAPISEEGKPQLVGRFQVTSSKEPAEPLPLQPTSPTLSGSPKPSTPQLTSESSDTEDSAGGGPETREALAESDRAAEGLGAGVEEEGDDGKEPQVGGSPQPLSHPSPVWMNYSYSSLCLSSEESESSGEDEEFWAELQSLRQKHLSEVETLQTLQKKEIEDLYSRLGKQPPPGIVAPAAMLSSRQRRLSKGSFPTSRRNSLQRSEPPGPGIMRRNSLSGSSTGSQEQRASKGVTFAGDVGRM
The following applies: WNK4; 1 μM; read-out: % control.

Test [7] has as its target T7, panel of 468 kinases (Homo sapiens, UniProt Q9UKI8).
T7 construct: purchased KINOMEscan (ScanMAX) service
T7 sequence (Q9UKI8 1-766): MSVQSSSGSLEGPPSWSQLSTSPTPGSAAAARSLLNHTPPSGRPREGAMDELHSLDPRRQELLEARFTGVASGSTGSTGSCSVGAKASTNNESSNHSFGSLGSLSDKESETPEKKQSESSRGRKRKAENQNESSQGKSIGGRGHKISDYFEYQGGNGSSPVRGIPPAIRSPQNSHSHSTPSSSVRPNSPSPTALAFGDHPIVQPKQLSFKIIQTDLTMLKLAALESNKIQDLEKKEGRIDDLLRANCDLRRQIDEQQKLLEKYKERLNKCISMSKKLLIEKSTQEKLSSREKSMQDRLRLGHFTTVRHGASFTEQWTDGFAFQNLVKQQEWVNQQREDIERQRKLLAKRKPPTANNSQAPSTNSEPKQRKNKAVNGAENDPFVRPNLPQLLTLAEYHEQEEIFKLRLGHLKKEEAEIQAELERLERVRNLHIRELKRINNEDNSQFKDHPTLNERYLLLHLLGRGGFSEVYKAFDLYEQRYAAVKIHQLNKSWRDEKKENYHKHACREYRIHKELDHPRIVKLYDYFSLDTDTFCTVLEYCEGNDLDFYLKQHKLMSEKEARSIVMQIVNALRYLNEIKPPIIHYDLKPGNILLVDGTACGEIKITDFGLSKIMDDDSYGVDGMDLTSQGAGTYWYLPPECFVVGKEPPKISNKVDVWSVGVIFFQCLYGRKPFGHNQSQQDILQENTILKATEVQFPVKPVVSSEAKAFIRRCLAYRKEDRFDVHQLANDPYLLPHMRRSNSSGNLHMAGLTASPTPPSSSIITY
The following applies: TLK1; 1 μM; read-out: % control.

Test [8] addresses T8, panel of 468 kinases (Homo sapiens, UniProt O75716).
T8 construct: purchased KINOMEscan (ScanMAX) service
The following applies: STK16; 1 μM; read-out: % control.

Test [9] has as its target T9, panel of 468 kinases (Homo sapiens, UniProt P15056).
T9 construct: purchased KINOMEscan (ScanMAX) service
The following applies: BRAF; 1 μM; read-out: % control.

Test [10] addresses T10, panel of 468 kinases (Homo sapiens, UniProt P08922).
T10 construct: purchased KINOMEscan (ScanMAX) service
The following applies: ROS1; 1 μM; read-out: % control.

The target of test [11] is T11, panel of 468 kinases (Homo sapiens, UniProt P52564).
T11 construct: purchased KINOMEscan (ScanMAX) service
T11 sequence (P52564 1-334): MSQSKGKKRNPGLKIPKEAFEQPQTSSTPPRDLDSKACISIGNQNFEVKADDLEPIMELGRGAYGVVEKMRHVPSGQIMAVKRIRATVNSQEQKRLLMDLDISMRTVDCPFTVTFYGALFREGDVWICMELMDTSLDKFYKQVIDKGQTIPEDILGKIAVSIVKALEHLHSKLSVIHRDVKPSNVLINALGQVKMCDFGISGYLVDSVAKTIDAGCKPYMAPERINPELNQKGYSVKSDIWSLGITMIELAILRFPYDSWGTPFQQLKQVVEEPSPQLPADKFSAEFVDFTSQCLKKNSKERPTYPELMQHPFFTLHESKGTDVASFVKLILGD
The following applies: MEK6; 1 μM; read-out: % control.

From US12479847B2 (DANA-FARBER CANCER INSTITUTE, INC., priority 2019, dated 2025) come the findings set out here.

Like-named read-outs stand apart in the source and are kept apart here.

T9 sequence (P15056 whole entry): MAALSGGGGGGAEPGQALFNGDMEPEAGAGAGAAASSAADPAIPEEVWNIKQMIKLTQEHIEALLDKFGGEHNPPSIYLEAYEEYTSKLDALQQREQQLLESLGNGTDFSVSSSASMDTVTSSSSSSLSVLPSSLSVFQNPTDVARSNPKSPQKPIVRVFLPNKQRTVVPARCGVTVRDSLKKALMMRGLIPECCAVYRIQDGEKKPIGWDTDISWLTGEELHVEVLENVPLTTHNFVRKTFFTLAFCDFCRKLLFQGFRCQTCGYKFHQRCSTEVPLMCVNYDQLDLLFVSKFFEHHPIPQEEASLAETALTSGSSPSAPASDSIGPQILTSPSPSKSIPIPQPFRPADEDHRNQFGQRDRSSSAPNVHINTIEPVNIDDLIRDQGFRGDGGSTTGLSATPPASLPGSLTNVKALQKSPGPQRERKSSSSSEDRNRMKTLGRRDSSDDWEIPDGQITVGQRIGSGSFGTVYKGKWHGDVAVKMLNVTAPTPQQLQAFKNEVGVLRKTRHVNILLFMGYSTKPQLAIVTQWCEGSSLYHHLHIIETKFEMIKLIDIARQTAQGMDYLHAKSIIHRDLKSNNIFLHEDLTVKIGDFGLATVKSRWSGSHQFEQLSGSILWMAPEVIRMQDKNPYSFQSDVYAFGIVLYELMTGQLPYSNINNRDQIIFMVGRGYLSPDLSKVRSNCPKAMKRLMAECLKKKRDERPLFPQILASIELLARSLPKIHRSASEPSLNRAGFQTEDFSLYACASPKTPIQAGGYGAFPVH
T8 sequence (O75716 whole entry): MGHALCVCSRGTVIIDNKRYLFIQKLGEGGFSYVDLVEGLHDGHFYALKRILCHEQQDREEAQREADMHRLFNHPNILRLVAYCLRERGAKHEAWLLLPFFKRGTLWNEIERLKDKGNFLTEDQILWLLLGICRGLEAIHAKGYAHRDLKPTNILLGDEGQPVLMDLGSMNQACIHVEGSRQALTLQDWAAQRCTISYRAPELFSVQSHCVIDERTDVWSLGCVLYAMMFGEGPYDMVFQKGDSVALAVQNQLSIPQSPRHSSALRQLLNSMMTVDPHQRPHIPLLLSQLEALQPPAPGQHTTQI

For `CNc1nc(Nc2ccc(S(=O)(=O)N3CCC(N4CCOCC4)CC3)cc2OC)nc2[nH]cc(Cl)c12` [Compound 12, 5-chloro-N2-(2-methoxy-4-((4-morpholinopiperidin-1-yl)sulfonyl)phenyl)-N4-methyl-7H-pyrrolo[2,3-d]pyrimidine-2,4-diamine], the remaining binding at 1 µM was determined as 100% in test [1]; 100% in test [2]; 100% in test [3] (RPS6KA5(Kin.Dom.1-N-terminal)); 69% in test [3] (RPS6KA5(Kin.Dom.2-C-terminal)); 80% in test [4]; 100% in test [5]. In addition, the remaining binding at 1 µM amounted to 61% in [6]; 89% in test [7]; 100% in test [8]; 93% in [9]; 85% in [10]; 96% in test [11].

`CNc1nc(Nc2ccc(C(=O)N3CCC(N4CCOCC4)CC3)c3c2OCO3)nc2[nH]cc(Cl)c12` [Compound 75, (7-((5-chloro-4-(methylamino)-7H-pyrrolo[2,3-d]pyrimidin-2-yl)amino)benzo[d][1,3]dioxol-4-yl)(4-morpholinopiperidin-1-yl)methanone]: the remaining binding at 1 µM was 98% in [1]; 100% in test [2]; 100% in test [3] (RPS6KA5(Kin.Dom.1-N-terminal)); 21% in test [3] (RPS6KA5(Kin.Dom.2-C-terminal)); 85% in test [4]; 100% in [5]. In addition, the remaining binding at 1 µM in test [6] stood at 66%; in [7], 86%; in [8], 71%; in [9] it was 100%; in test [10] it was 86%; in test [11], 10%.

Turning to `CNc1nc(Nc2ccc(P3(=O)CCN(C4CCOCC4)CC3)cc2OC)nc2[nH]cc(Cl)c12` [Compound 77, 4-(4-((5-chloro-4-(methylamino)-7H-pyrrolo[2,3-d]pyrimidin-2-yl)amino)-3-methoxyphenyl)-1-(tetrahydro-2H-pyran-4-yl)-1,4-azaphosphinane 4-oxide], the remaining binding at 1 µM in test [1] stood at 100%; in test [2], 100%; in test [3] (RPS6KA5(Kin.Dom.1-N-terminal)), 94%; in test [3] (RPS6KA5(Kin.Dom.2-C-terminal)) it was 20%; in [4], 99%; in test [5], 96%. The remaining binding at 1 µM in [6] is 66%; in [7] it was 96%; in test [8], 93%; in test [9] it was 97%; in [10] it was 54%; in test [11] it was 56%.
